Structures can show the parent of a compound that is named as a salt. Where two headings read alike, the source gives them in different places.
Legend:
[1] = biological target: T1, BIR3-mediated Caspase-9 inhibition (UniProt Q9R0I6); assay: Caspase-9 rescue assay (relief of BIR3-mediated Caspase-9 inhibition); format: biochemical, human Caspase-9; Rat or Chicken BIR3; conditions: average EC50, substrate Ac-LEHD-amc, pH 6.5
T1 construct: Nothing is printed for this assay
Protocol: Additionally the compounds and compositions can be evaluated for their ability to achieve relief of BIR3-mediated Caspase-9 inhibition by measuring Caspase-9 reactivation. The fluorogenic substrate Ac-LEHD-7-amido-4-methylcoumarin is used in these methods. EC50 values of tested BIR3 inhibitors or Caspase-9 rescuers is calculated from the percentage of Caspase-9 reactivation in the mixtures containing serially diluted concentrations of tested compound. Typically, 10-point curves are generated for such EC50 determination.
Relief of BIR3-mediated Caspase-9 inhibition by BIR3 inhibitors was assayed by measuring Caspase-9 reactivation using the fluorogenic substrate Ac-LEHD-7-amido-4-methylcoumarin. A truncated form of human Caspase-9 that lacks the N-terminal Caspase recruitment domain (EPro-Caspase-9 or p35/p12) was used in the assay. This form of the enzyme has the full catalytic activity and the same substrate specificity as the full-length protein in the Apaf-1/Cytochrome C/dATP/Caspase-9 reconstituted system. Rat or Chicken BIR3 was used in this assay. […] This mixture was incubated for 40 min to allow equilibration at 25° C., and the assay progression was subsequently followed by monitoring the formation of fluorescent 7-amido-4-methylcoumarin over time at 460 nm using an excitation wavelength of 360 nm. […] EC50 values of tested BIR3 inhibitors or Caspase-9 rescuers were calculated from the percentage of Caspase-9 reactivation in the mixtures containing serially diluted concentrations of tested compound.

BIR3 domain of rat XIAP = BIR3 domain of rat XIAP (Rattus norvegicus, UniProt Q9R0I6); assay: Fluorescence polarization assay, binding to BIR3 from rat XIAP
BIR3 domain of rat XIAP, sequence (Q9R0I6 241-355): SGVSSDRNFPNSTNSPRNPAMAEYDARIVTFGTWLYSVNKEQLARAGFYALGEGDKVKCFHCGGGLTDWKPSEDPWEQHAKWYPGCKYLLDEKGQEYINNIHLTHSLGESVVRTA
Protocol: In fluorescence polarization assays a fluorescent probe is used. The binding affinity of compounds to BIR3 is measured by competitive displacement of a fluorescent probe using fluorescence polarization anisotropy. […] In other embodiments, the probe used is 6-(6-Hydroxy-3-oxo-3H-xanthen-9-yl)-N-(5-(2-methylamino-propionylamino)-6-oxo-6-[4-(1,2,3,4-tetrahydro-naphthalen-1-ylcarbamoyl)-thiazolidin-3-yl]-hexyl)-isophthalamic acid.
The binding affinity of compounds provided herein for rat BIR3 was measured by competitive displacement of a fluorescent probe using fluorescence polarization anisotropy. […] Control conditions were set up on each plate and include free probe 1 alone (5 nM), fully bound probe (5 μM BIR3+5 nM probe 1) and binding buffer blank. The-EC50 of binding was computed from a 4-parameter fit of the measured anisotropies using the SoftMax Pro 4.6 software package (Molecular Dynamics, Sunnyvale, Calif.).
Alternatively, probe 1 was substituted with probe 2: 6-(6-Hydroxy-3-oxo-3H-xanthen-9-yl)-N-{5-(2-methylamino-propionylamino)-6-oxo-6-[4-(1,2,3,4-tetrahydro-naphthalen-1-ylcarbamoyl)-thiazolidin-3-yl]-hexyl}-isophthalamic acid, for rat BIR3 and the concentrations of assay components changed. […] Controls were adjusted accordingly.

| Compound | EC50 [1] | EC50 (BIR3 domain of rat XIAP) | EC50 (BIR3 domain of rat XIAP; read-out: EC50 for binding to BIR3, average EC50, BIR3 domain of rat XIAP, competitive displacement of fluorescent probe) |
| --- | --- | --- | --- |
| CNC(C)C(=O)NC(C(=O)NC(CC(=O)OCc1ccccc1)C(=O)NC1CCCc2ccccc21)C(C)C (stereo not shown) [3-[3-Methyl-2-(2-methylamino-propionylamino)-butyrylamino]-N-(1,2,3,4-tetrahydro-naphthalen-1-yl)-succinamic acid benzyl ester] | 1000 to 10000 nM | < 1000 nM | – |
| CNC(C)C(=O)NC(C(=O)NCC(=O)NC1CCCc2ccccc21)C(C)C (stereo not shown) [3-Methyl-2-(2-methylamino-propionylamino)-N-[(1,2,3,4-tetrahydro-naphthalen-1-ylcarbamoyl)-methyl]-butyramide] | 1000 to 10000 nM | 1000 to 10000 nM | – |
| CNC(C)C(=O)NC(C(=O)N1CC2(CC1C(=O)NC1CCCc3ccccc31)SCCS2)C(C)C (stereo not shown) [7-[3-Methyl-2-(2-methylamino-propionylamino)-butyryl]-1,4-dithia-7-aza-spiro[4.4]nonane-8-carboxylic acid (1,2,3,4-tetrahydro-naphthalen-1-yl)-amide] | 1000 to 10000 nM | < 1000 nM | – |
| CNC(C)C(=O)NC(C(=O)N1CCCC1C(=O)NN(C)c1ccccc1)C(C)(C)C (stereo not shown) [N-{2,2-Dimethyl-1-[2-(N′-methyl-N′-phenyl-hydrazinocarbonyl)-pyrrolidine-1-carbonyl]-propyl}-2-methylamino-propionamide] | 1000 to 10000 nM | < 1000 nM | – |
| CN[C@@H](C)C(=O)N[C@H](C(=O)N(C)[C@@H](CCCNC(=N)NS(=O)(=O)c1ccc(C)cc1)C(=O)N[C@@H]1CCCc2ccccc21)C(C)C [(S)-2-((S)-N,3-dimethyl-2-((S)-2-(methylamino)propanamido)butanamido)-N-((R)-1,2,3,4-tetrahydronaphthalen-1-yl)-5-(3-Htosylguanidino)pentanamide; 2,2,2-trifluoroacetic acid salt] | < 1000 nM | – | < 1000 nM |
| CNC(C)C(=O)NC(C(=O)NC(CCN)C(=O)NC1CCCc2ccccc21)C(C)C (stereo not shown) [N-[3-Amino-1-(1,2,3,4-tetrahydro-naphthalen-1-ylcarbamoyl)-propyl]-3-methyl-2-(2-methylamino-propionylamino)-butyramide] | 1000 to 10000 nM | < 1000 nM | – |
| CCCCC(NC(=O)C(NC(=O)C(C)NC)C(C)C)C(=O)NC1CCCc2ccccc21 (stereo not shown) [2-[3-Methyl-2-(2-methylamino-propionylamino)-butyrylamino]-hexanoic acid (1,2,3,4-tetrahydro-naphthalen-1-yl)-amide] | 1000 to 10000 nM | < 1000 nM | – |
| CNC(C)C(=O)NC(C(=O)N1CSCC1C(=O)NN(c1ccccc1)c1ccccc1)C(C)C (stereo not shown) [N-{1-[4-(N′,N′-Diphenyl-hydrazinocarbonyl)-thiazolidine-3-carbonyl]-2-methyl-propyl}-2-methylamino-propionamide] | 1000 to 10000 nM | < 1000 nM | – |
| CNC(C)C(=O)NC(C(=O)NC(CCNC(=O)OCc1ccccc1)C(=O)NC1CCCc2ccccc21)C(C)C (stereo not shown) [[3-[3-Methyl-2-(2-methylamino-propionylamino)-butyrylamino]-3-(1,2,3,4-tetrahydro-naphthalen-1-ylcarbamoyl)-propyl]-carbamic acid benzyl ester] | 1000 to 10000 nM | < 1000 nM | – |
| CNC(C)C(=O)NC(C(=O)N(C)C(CCCCNC(=O)OCc1ccccc1)C(=O)NC1CCCc2ccccc21)C(C)C (stereo not shown) [[5-{Methyl-[3-methyl-2-(2-methylamino-propionylamino)-butyryl]-amino}-5-(1,2,3,4-tetrahydro-naphthalen-1-ylcarbamoyl)-pentyl]-carbamic acid benzyl ester] | 1000 to 10000 nM | < 1000 nM | – |
| CNC(C)C(=O)NC1CCC(=O)N2CCC(C(=O)NC3CCCc4ccccc43)N2C1=O (stereo not shown) [8-(2-Methylamino-propionylamino)-5,9-dioxo-hexahydro-pyrazolo[1,2-a][1,2]diazepine-1-carboxylic acid (1,2,3,4-tetrahydro-naphthalen-1-yl)-amide] | 1000 to 10000 nM | < 1000 nM | – |
| CNC(C)C(=O)NC(C(=O)NC(CCO)C(=O)NC1CCCc2ccccc21)C(C)C (stereo not shown) [N-[3-Hydroxy-1-(1,2,3,4-tetrahydro-naphthalen-1-ylcarbamoyl)-propyl]-3-methyl-2-(2-methylamino-propionylamino)-butyramide] | 1000 to 10000 nM | < 1000 nM | – |

Second part, led by results:

| EC50 [1] | EC50 (BIR3 domain of rat XIAP) | Compound | EC50 (BIR3 domain of rat XIAP; read-out: EC50 for binding to BIR3, average EC50, BIR3 domain of rat XIAP, competitive displacement of fluorescent probe) |
| --- | --- | --- | --- |
| < 1000 nM | < 1000 nM | CNC(C)C(=O)NC(C(=O)NC(CCCCNS(=O)(=O)c1ccc([N+](=O)[O-])cc1)C(=O)NC1CCCc2ccccc21)C(C)C (stereo not shown) [2-[3-Methyl-2-(2-methylamino-propionylamino)-butyrylamino]-6-(4-nitro-benzenesulfonylamino)-hexanoic acid (1,2,3,4-tetrahydro-naphthalen-1-yl)-amide] | – |
| < 1000 nM | < 1000 nM | CNC(C)C(=O)NC(C(=O)NC(CCCCNS(=O)(=O)c1ccc(OC)cc1)C(=O)NC1CCCc2ccccc21)C(C)C (stereo not shown) [6-(4-Methoxy-benzenesulfonylamino)-2-[3-methyl-2-(2-methylamino-propionylamino)-butyrylamino]-hexanoic acid (1,2,3,4-tetrahydro-naphthalen-1-yl)-amide] | – |
| < 1000 nM | < 1000 nM | CNC(C)C(=O)NC(C(=O)NC(CCCCN(C)C)C(=O)NC1CCCc2ccccc21)C(C)C (stereo not shown) [6-Dimethylamino-2-[3-methyl-2-(2-methylamino-propionylamino)-butyrylamino]-hexanoic acid (1,2,3,4-tetrahydro-naphthalen-1-yl)-amide] | – |
| < 1000 nM | < 1000 nM | CNC(C)C(=O)NC(C(=O)NC(CCCCNC(=O)OCc1ccccc1Cl)C(=O)NC1CCCc2ccccc21)C(C)C (stereo not shown) [[5-[3-Methyl-2-(2-methylamino-propionylamino)-butyrylamino]-5-(1,2,3,4-tetrahydro-naphthalen-1-ylcarbamoyl)-pentyl]-carbamic acid 2-chloro-benzyl ester] | – |
| < 1000 nM | < 1000 nM | CNC(C)C(=O)NC(C(=O)N1CSCC1C(=O)NC(Cc1ccccc1)Cc1ccccc1)C(C)C (stereo not shown) [3-[3-Methyl-2-(2-methylamino-propionylamino)-butyryl]-thiazolidine-4-carboxylic acid (1-benzyl-2-phenyl-ethyl)-amide] | – |
| < 1000 nM | < 1000 nM | CNC(C)C(=O)NC(C(=O)N1CSCC1C(=O)NC1CCc2ccccc21)C(C)C (stereo not shown) [3-[3-Methyl-2-(2-methylamino-propionylamino)-butyryl]-thiazolidine-4-carboxylic acid indan-1-ylamide] | – |
| < 1000 nM | < 1000 nM | CNC(C)C(=O)NC(C(=O)N1C(C(=O)NC2CCCc3ccccc32)CC2CCCCC21)C(C)C (stereo not shown) [1-[3-Methyl-2-(2-methylamino-propionylamino)-butyryl]-octahydro-indole-2-carboxylic acid (1,2,3,4-tetrahydro-naphthalen-1-yl)-amide] | – |
| < 1000 nM | < 1000 nM | CCCCN(CCCC)CCCCC(NC(=O)C(NC(=O)C(C)NC)C(C)C)C(=O)NC1CCCc2ccccc21 (stereo not shown) [6-Dibutylamino-2-[3-methyl-2-(2-methylamino-propionylamino)-butyrylamino]-hexanoic acid (1,2,3,4-tetrahydro-naphthalen-1-yl)-amide] | – |
| < 1000 nM | < 1000 nM | CNC(C)C(=O)NC(CCCCNC(=O)OCC1c2ccccc2-c2ccccc21)C(=O)N1CSCC1C(=O)NC1CCCc2ccccc21 (stereo not shown) [{5-(2-Methylamino-propionylamino)-6-oxo-6-[4-(1,2,3,4-tetrahydro-naphthalen-1-ylcarbamoyl)-thiazolidin-3-yl]-hexyl}-carbamic acid 9H-fluoren-9-ylmethyl ester] | – |
| < 1000 nM | < 1000 nM | CNC(C)C(=O)NC(C(=O)NC(C(=O)NC1CCCc2ccccc21)c1ccccc1)C(C)C (stereo not shown) [3-Methyl-2-(2-methylamino-propionylamino)-N-[phenyl-(1,2,3,4-tetrahydro-naphthalen-1-ylcarbamoyl)-methyl]-butyramide] | – |
| < 1000 nM | < 1000 nM | CN[C@@H](C)C(=O)N[C@H](C(=O)N1COC[C@H]1C(=O)N[C@@H]1CCCc2ccccc21)C(C)C [3-[3-Methyl-2-(2-methylamino-propionylamino)-butyryl]-oxazolidine-4-carboxylic acid (1,2,3,4-tetrahydro-naphthalen-1-yl)-amide] | – |
| < 1000 nM | < 1000 nM | CNC(C)C(=O)NC(C(=O)N1CSCC1C(=O)NC(c1ccccc1)c1ccccc1)C(C)C (stereo not shown) [3-[3-Methyl-2-(2-methylamino-propionylamino)-butyryl]-thiazolidine-4-carboxylic acid benzhydryl-amide] | – |
| < 1000 nM | < 1000 nM | CCCCS(=O)(=O)NCCCCC(NC(=O)C(NC(=O)C(C)NC)C(C)C)C(=O)NC1CCCc2ccccc21 (stereo not shown) [6-(Butane-1-sulfonylamino)-2-[3-methyl-2-(2-methylamino-propionylamino)-butyrylamino]-hexanoic acid (1,2,3,4-tetrahydro-naphthalen-1-yl)-amide] | – |
| < 1000 nM | < 1000 nM | CNC(C)C(=O)NC(C(=O)NC(C(=O)NC1CCCc2ccccc21)C1CCCCC1)C(C)C (stereo not shown) [N-[Cyclohexyl-(1,2,3,4-tetrahydro-naphthalen-1-ylcarbamoyl)-methyl]-3-methyl-2-(2-methylamino-propionylamino)-butyramide] | – |

From patent US20100190688A1, “Tetrapeptide analogs” (priority 2004, published 2010)
